Entries after “also recorded” stand apart in the source; their conditions may differ.
Legend:
[1] = tested on: primary osteoblasts collected from fetal mouse calvaria; assay: Alkaline phosphatase (ALP) activity in primary osteoblasts under suboptimal BMP-2; format: cell-based
Procedure: The peptide of SEQ ID No. 8 was added to this culture system at 0, 0.2, 0.4, 1.0, 2.0, and 4.0 μM. The levels of ALP were evaluated on days 0, 3, and 7.

[2] = tested on: COX-2; assay: Gene expression microarray analysis in Clonetics hMSC cells (COX-2 mRNA); format: cell-based, human; details: for COX-2 mRNA increase: 1000 ng/ml peptide
Procedure: Materials and Methods: The effect of the peptide of SEQ ID No. 8 treatment on gene expression was assessed in the Clonetics hMSC cells using gene expression microarray analysis as previously described (Locklin et al., 2001). Briefly, cells were plated in five T-150 vented flasks at a density of 1.0×10^6 cells per flask in growth medium and cultured at 37° C. for 48 hours. Flasks containing either vehicle alone or the peptide of SEQ ID No. 8 (1000 ng/ml) were cultured for 24 hr or for 48 h in standard differentiation medium. At each time point, the vehicle and treatment flasks were trypsinized, cells removed and total RNA was extracted for analysis via the Qiagen Rneasy Kit (Qiagen). 8 μg of total RNA were amplified and biotin labeled. The mixture was hybridized to a U95A human gene expression microarray (Affymetrix) containing probes for 12,600 human genes. The chips were then washed, stained with phycoerythrin-streptavidin and read with an Affymetrix scanner. Hybridization intensity values to mRNA frequency were calculated in molecules per million. Analysis of intensity values was conducted using Spotfire Decision Site (Somerville, Mass.) software.

[3] = tested on: MC3T3-E1 subclone 4 cells; assay: BMP-2 stimulated PGE2 production by MC3T3 cells (ELISA); format: cell-based, mouse; details: suboptimal rhBMP-2 plus varying doses of peptide, 24 hours; FIG. 2
Procedure: Methods: MC3T3-E1 subclone 4 cells are neonatal mouse derived calvarial preosteoblasts with fibroblast morphology. […] For this experiment the MC3T3 cells were plated 10^5 cells per well in 24 well plates in growth medium (alpha MEM+1 mM sodium pyruvate+10% fetal bovine serum (FBS)). After 24 hours of culture the media was removed and replaced with assay media (alphaMEM+1 mM sodium pyruvate+2% FBS) containing the test substances. Each test group utilized 4 wells. After incubation for a further 24 hours the media was removed and the levels of PGE2 were determined using an ELISA (R&D Systems).

[4] = tested on: Smad1/5/8; assay: Phosphorylation of Smad1/5/8 by Western blotting in primary osteoblasts; format: cell-based, mouse; details: 2 uM peptide added to 25 ng/mL BMP-2; FIG. 3
Procedure: Phosphorylation of Smad1/5/8 was evaluated by Western blotting at 0, 0.5, 1, 2, 12, 24, 48 and 72 hours.

[5] = tested on: hemi-calvariae from 4 day old Swiss Webster mice; assay: Mouse calvaria organ culture assay (PGE2, new bone formation histology); format: cell-based; details: peptide 1, 10, 100 μg/mL daily for seven days
Description: Methods: Calvarial organ cultures have been used for many years to study the regulation of bone formation and bone resorption. An advantage of this method compared to in vivo studies is the absence of confounding effects (such as hormonal and mechanical influences) meaning a more direct effect of the test substances on bone tissue can be determined. Also compared to isolated cell systems, interrelationships between the different cell types in the bone and between these cells and the bone matrix are preserved.
Briefly, hemi-calvariae were isolated from 4 day old Swiss Webster mice and incubated in media on steel mesh grids. The peptide of SEQ ID NO. […] Samples of the conditioned media were collected daily for analysis of PGE2 concentration (R&D Systems ELISA kit). At the end of the culture the bones were analyzed for new bone formation and number of osteoblasts using histology.

[6] = tested on: dorsal muscle of mice (ICR); assay: Ectopic bone formation from polymer pellets implanted in mouse dorsal muscle; format: in vivo
Description: The mice were sacrificed 3 weeks later and the newly formed bones were isolated for evaluation using soft X-ray radiograph and bone mineral density determination.

[7] = tested on: human mesenchymal cells; assay: PGE2 in human mesenchymal cells in culture; format: cell-based; details: peptide alone
[8] = tested on: hard tissue forming cells; assay: General activity statements on hard tissue forming cells
[9] = tested on: COX-2; details: Nagel et al., Journal of Cellular Biochemistry, 2004; cited from earlier work
[10] = tested on: hemi-calvariae from 4 day old Swiss Webster mice; details: Middleton-Hardie et al., ASBMR 2005; cited from earlier work
[11] = 2 μM peptide with 25 ng/mL BMP-2

TDLQERGDNDISPFSGDGQPFKD [SEQ ID No. 8]
ALP activity increase as compared with BMP-2 treated cells without addition of the peptide [1, 11]: ~2 times
ALP activity increase as compared with the control group [1, 11]: about 3 times
ALP activity in osteoblastic cells ([1]; BMP-2 (suboptimal, 25 ng/mL) plus peptide 0.2-4.0 μM, FIG. 1): significantly increased; also recorded: dose dependent upregulation
COX-2 mRNA increase ([2]; 24 h): 3.6 fold
COX-2 mRNA increase ([2]; 48 h): 2.2 fold
mRNA for cyclooxygenase-2 (COX-2) increase, summary ([2]; discussion summary of both time points): ~3 fold
BMP-2 induced PGE2 production [3]: increases; also recorded: dose dependent production
time over which phosphorylation of Smad1/5/8 was detectable [4]: 0.5 to 48 h
PGE2 production ([5]; FIG. 4): significant increases
bone cell density ([5]; FIG. 5): significant increases
new bone formation ([5]; FIG. 5): significant increases
osteoblast surface ([5]; FIG. 5): significant increases
enhancement of the BMP-2 effects on bone formation (size and mineral density of ectopic ossicles) ([6]; 3 ug BMP-2 in 30 mg polymer, peptide 0-1250 ug, three weeks): significant enhancement
efficacy of the peptide on bone formation (size and mineral density of ectopic ossicles) ([6]; 5 ug BMP-2 in 30 mg polymer, peptide 0-1250 ug, three weeks): unclear
increase in bone formation ([6]; peptide added to suboptimal dose, 3 μg of rhBMP-2): significant and dose dependent increase
increase in PGE2 [7]: did not result in a significant increase
biological activities for the purpose of this invention, relative ranking [8]: highest activities
COX-2 in human mesenchymal stem cells [9]: upregulated
production of PGE2 in mouse calvaria organ culture assay [10]: dose dependently upregulated

From patent US7622438B1, “Protein formulation for promoting hard tissue formation” (Acologix, Inc., priority 2005, dated 2009)
